Data on 24 compounds can be found in US20180099931A1 (AbbVie S.à.r.l., priority 2016, published 2018).

Like-named read-outs stand apart in the source and are kept apart here.

The experiment deals with T1, F508delCFTR (Homo sapiens, UniProt P13569, DEL508-508).
T1 construct: expressed in transfected cells; host or cells: CFBE41o- human lung-derived epithelial cells (CFBE4lo-F508delCFTR-HRP), doxycycline-inducible
Briefly: Cell Surface Expression-Horse Radish Peroxidase (CSE-HRP) Assay.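 On Maximum % activity (with co-corrector): co-corrector and positive control are both the same reference corrector at 2 µM.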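 On Maximum % activity (without co-corrector): percent of the 2 µM on-plate positive control corrector response above DMSO.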 Format: cell-based. The following applies: for Maximum % activity (with co-corrector) / Emax / Maximum % activity (without co-corrector): maximum at any tested concentration, normalized to on-plate positive control; for Emax: read-out: Maximum % activity (without co-corrector).

Setting [1] is: CSE-HRP, test compound without co-corrector, read-out: EC50 (without co-corrector).
Setting [2] is: CSE-HRP, with co-corrector (2 μM of 3-[(2R,4R)-4-({[1-(2,2-difluoro-1,3-benzodioxol-5-yl)cyclopropyl]carbonyl}amino)-7-methoxy-3,4-dihydro-2H-chromen-2-yl]benzoic acid), read-out: EC50 (with co-corrector).
[3] abbreviates: CSE-HRP, with co-corrector (2 μM).
Where [4] appears, read: test compound without co-corrector.
The mark [5] stands for this setting: test compound without co-corrector, read-out: EC50 (without co-corrector).
Setting [6] is: with co-corrector (2 μM of 3-[(2R,4R)-4-({[1-(2,2-difluoro-1,3-benzodioxol-5-yl)cyclopropyl]carbonyl}amino)-7-methoxy-3,4-dihydro-2H-chromen-2-yl]benzoic acid).
The mark [7] stands for this setting: with co-corrector (2 μM of 3-[(2R,4R)-4-({[1-(2,2-difluoro-1,3-benzodioxol-5-yl)cyclopropyl]carbonyl}amino)-7-methoxy-3,4-dihydro-2H-chromen-2-yl]benzoic acid), read-out: EC50 (with co-corrector).

T1 sequence (P13569 with tags, fused parts or gaps DEL508-508): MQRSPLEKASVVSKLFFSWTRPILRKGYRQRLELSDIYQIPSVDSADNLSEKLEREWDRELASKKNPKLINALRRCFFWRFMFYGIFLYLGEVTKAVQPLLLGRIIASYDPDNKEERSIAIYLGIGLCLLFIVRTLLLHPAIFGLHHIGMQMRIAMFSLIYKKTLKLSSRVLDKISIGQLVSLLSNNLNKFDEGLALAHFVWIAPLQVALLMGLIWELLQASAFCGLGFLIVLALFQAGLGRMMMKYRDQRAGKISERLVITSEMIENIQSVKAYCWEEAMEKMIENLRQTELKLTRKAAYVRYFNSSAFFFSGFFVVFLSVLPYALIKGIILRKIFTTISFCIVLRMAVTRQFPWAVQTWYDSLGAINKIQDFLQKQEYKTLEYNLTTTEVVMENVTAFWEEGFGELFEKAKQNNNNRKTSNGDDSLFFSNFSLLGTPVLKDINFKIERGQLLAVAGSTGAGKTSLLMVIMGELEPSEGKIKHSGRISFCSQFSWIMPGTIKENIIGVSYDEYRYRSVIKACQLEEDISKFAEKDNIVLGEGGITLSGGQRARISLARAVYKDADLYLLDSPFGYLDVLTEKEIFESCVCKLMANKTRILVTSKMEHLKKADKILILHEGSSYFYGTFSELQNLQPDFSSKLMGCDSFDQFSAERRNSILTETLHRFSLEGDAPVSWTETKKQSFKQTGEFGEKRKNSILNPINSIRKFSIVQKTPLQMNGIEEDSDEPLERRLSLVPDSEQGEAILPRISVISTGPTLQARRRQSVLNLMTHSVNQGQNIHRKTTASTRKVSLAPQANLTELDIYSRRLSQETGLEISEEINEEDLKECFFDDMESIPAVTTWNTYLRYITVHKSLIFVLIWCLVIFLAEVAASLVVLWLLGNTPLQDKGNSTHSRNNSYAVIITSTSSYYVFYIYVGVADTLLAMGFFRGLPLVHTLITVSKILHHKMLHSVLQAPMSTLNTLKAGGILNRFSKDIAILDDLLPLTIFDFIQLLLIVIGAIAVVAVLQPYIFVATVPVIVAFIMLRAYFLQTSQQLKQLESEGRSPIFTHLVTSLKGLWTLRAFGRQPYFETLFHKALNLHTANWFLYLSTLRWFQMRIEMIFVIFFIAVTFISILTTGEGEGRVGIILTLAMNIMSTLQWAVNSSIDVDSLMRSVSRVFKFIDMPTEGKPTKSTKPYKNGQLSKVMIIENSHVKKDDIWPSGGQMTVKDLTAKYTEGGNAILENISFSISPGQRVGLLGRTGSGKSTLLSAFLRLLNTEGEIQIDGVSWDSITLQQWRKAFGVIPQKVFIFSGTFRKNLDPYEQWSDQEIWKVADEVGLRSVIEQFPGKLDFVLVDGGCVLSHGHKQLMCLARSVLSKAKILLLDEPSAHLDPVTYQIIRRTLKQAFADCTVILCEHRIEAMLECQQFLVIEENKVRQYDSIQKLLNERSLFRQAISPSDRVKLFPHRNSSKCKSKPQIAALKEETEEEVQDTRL

With `COc1cc(C(F)(F)F)ccc1CN[C@@H]1[C@@H](C(C)(C)C)[C@H](C(=O)O)N(C(=O)C(C)c2ccccc2)[C@@H]1c1ccccc1` (single isomer, unassigned) [II-80], the EC50 was in the range of 1 to 10 µM under setting [1] and 1 to 10 µM under setting [2]. Further, the “Maximum % activity (with co-corrector)” value under setting [3] is recorded as “+++ (≥350)”. The Emax (CSE-HRP, without co-corrector) was in the range of 100 to 200%.
Take `COc1ccc(C(C)(C)C)cc1CN[C@H]1[C@H](C(C)(C)C)[C@@H](C(=O)O)N(C(=O)C23CC(F)(C2)C3)[C@H]1c1ccccc1` [II-498]: the Emax under setting [4] was 100 to 200%. For the same compound, the 50% effective concentration (EC50) runs as follows: under setting [5], 1 to 10 µM; under setting [7], 1 to 10 µM. The “Maximum % activity (with co-corrector)” value under setting [6] is on record as “+++ (≥350)”.
`COc1ccc(C(C)(C)C)cc1CN[C@H]1[C@H](C(C)(C)C)[C@@H](C(=O)O)N(C(=O)C2Cc3ccccc3O2)[C@H]1c1cccnc1N(C)C` (single isomer, unassigned) [Example 36, (2S,3S,4S,5S)-3-tert-butyl-4-{[(5-tert-butyl-2-methoxyphenyl)methyl]amino}-1-[(2S*)-2,3-dihydro-1-benzofuran-2-carbonyl]-5-[2-(dimethylamino)pyridin-3-yl]pyrrolidine-2-carboxylic acid]: the EC50 under setting [5] is less than 1 µM and the concentration giving a half-maximal response (EC50) under setting [7] is less than 1 µM. For the setting “with co-corrector (2 μM)”, the “Maximum % activity (with co-corrector)” value is listed as “+++ (≥350)”. For the same compound, the Emax (without co-corrector) was in the range of 100 to 200%.
As to `COc1cc(C(F)(F)F)ccc1CN[C@H]1[C@H](C(C)(C)C)[C@@H](C(=O)O)N(C(=O)[C@@H]2CCC[C@H](O)C2)[C@H]1c1ccccc1` [II-538], under setting [4], the Emax fell in the range of 100 to 200%. Moreover, the EC50 by setting is: under setting [5], 1 to 10 µM; under setting [7], 1 to 10 µM. The “Maximum % activity (with co-corrector)” value under setting [6] is reported as “+++ (≥350)”.
As for `COc1ccc(C2(C(F)(F)F)CC2)cc1CN[C@H]1[C@H](C(C)(C)C)[C@@H](C(=O)O)N(C(=O)[C@@H]2CCCCO2)[C@H]1c1cccnc1N(C)C` [Example I-176], the EC50 is 1 to 10 µM under setting [5] and 1 to 10 µM under setting [7]. For the same compound, the “Maximum % activity (with co-corrector)” value (with co-corrector (2 μM)) is given as “+++ (≥350)”. The Emax (without co-corrector) was more than 200%.
`COc1nc(C(C)(C)C)ccc1CN[C@H]1[C@H](C(C)(C)C)[C@@H](C(=O)O)N(C(=O)Cc2ccccc2C)[C@H]1c1ccccc1C(C)C` [II-427]: the Emax under setting [4] is more than 200%. For the same compound, the EC50 was less than 1 µM under setting [5] and less than 1 µM under setting [7]. Further, the “Maximum % activity (with co-corrector)” value under setting [6] was “+++ (≥350)”.
As to `COc1ccc(C(C)(C)C)cc1CN[C@H]1[C@H](C(C)(C)C)[C@@H](C(=O)O)N(C(=O)C2(C)CCc3c(Cl)cccc32)[C@H]1c1ccccc1` (some centres unmarked) [II-367], under setting [4], the Emax is 100 to 200%. For the same compound, the concentration for a half-maximal effect (EC50) under setting [5] was 1 to 10 µM and the EC50 under setting [7] lay in the range of 1 to 10 µM. The “Maximum % activity (with co-corrector)” value under setting [6] is recorded as “+++ (≥350)”.
Turning to `COc1ncc(C2CCCC2)cc1CN[C@H]1[C@H](C(C)(C)C)[C@@H](C(=O)O)N(C(=O)C2CCCCC2)[C@H]1c1cccnc1N(C)C` [Example I-132], the EC50 lay in the range of 1 to 10 µM under setting [5] and 1 to 10 µM under setting [7]. Besides, the “Maximum % activity (with co-corrector)” value (with co-corrector (2 μM)) is “+++ (≥350)”. Also, the Emax (without co-corrector) was more than 200%.
As to `COc1ccc(C(C)(C)C)cc1CN[C@H]1[C@H](C(C)(C)C)[C@@H](C(=O)O)N(C(=O)C2COc3ccccc3O2)[C@H]1c1cccnc1N(C)C` (single isomer, unassigned) [II-472], the “Maximum % activity (without co-corrector)” value under setting [4] was “+ (<100)”. The EC50 under setting [5] lay within 1 to 10 µM and the EC50 under setting [7] lay in the range of 1 to 10 µM. For the same compound, the “Maximum % activity (with co-corrector)” value under setting [6] was “++ (≥150 and <350)”.
On to `COc1ccc(C(C)(C)C)cc1CN[C@H]1[C@H](C(C)(C)C)[C@@H](C(=O)O)N(C(=O)C2CC3C(CC2C)C3(C)C)[C@H]1c1ccccc1` (some centres unmarked) [II-376], for which, under setting [4], the Emax was more than 200%. Moreover, the EC50 fell in the range of 1 to 10 µM under setting [5] and 1 to 10 µM under setting [7]. Further, under setting [6], the “Maximum % activity (with co-corrector)” value is “+++ (≥350)”.
`COc1ncc(F)cc1CN[C@@H]1[C@@H](C(C)(C)C)[C@H](C(=O)O)N(C(=O)C2CCCCC2)[C@@H]1c1ccccc1` (racemic) [II-30]: the EC50 under setting [1] was 1 to 10 µM and the concentration for a half-maximal effect (EC50) under setting [2] lay in the range of 1 to 10 µM. For the same compound, under setting [3], the “Maximum % activity (with co-corrector)” value is “+++ (≥350)”. Further, the Emax (CSE-HRP, without co-corrector) was in the range of 100 to 200%.
For the compound `COc1ccc(C2(C(F)(F)F)CC2)cc1CN[C@H]1[C@H](C(C)(C)C)[C@@H](C(=O)O)N(C(=O)C2CCCCC2)[C@H]1c1ccccc1` [Example 33, (2S,3S,4S,5S)-3-tert-butyl-1-(cyclohexanecarbonyl)-4-[({2-methoxy-5-[1-(trifluoromethyl)cyclopropyl]phenyl}methyl)amino]-5-phenylpyrrolidine-2-carboxylic acid], the EC50 under setting [5] fell in the range of 1 to 10 µM and the EC50 under setting [7] is less than 1 µM. Where the note is “with co-corrector (2 μM)”, the “Maximum % activity (with co-corrector)” value is given as “+++ (≥350)”. Besides, the Emax (without co-corrector) was more than 200%.
For `COc1ncc(C2CCC2)cc1CN[C@H]1[C@H](C(C)(C)C)[C@@H](C(=O)O)N(C(=O)[C@@H]2CCCCO2)[C@H]1c1ccccc1Br` [Example I-291], the EC50 is less than 1 µM under setting [1] and less than 1 µM under setting [2]. In addition, under setting [3], the “Maximum % activity (with co-corrector)” value was “+++ (≥350)”. Moreover, where the note is “CSE-HRP, without co-corrector”, the Emax was in the range of 100 to 200%.
For `COc1ccc(C(F)(F)F)cc1CN[C@H]1[C@H](C(C)(C)C)[C@@H](C(=O)O)N(C(=O)C2CCCC(F)(F)C2)[C@H]1c1cccnc1OC` (relative stereo) [Example I-256], the EC50 under setting [1] is 1 to 10 µM and the EC50 under setting [2] is less than 1 µM. The “Maximum % activity (with co-corrector)” value under setting [3] is reported as “+++ (≥350)”. Under “CSE-HRP, without co-corrector”, the Emax is more than 200%.
Turning to `COc1ccc(Cl)cc1CN[C@@H]1[C@@H](C(C)(C)C)[C@H](C(=O)O)N(C(=O)C2CCCCC2)[C@@H]1c1cccnc1N(C)C` (racemic) [III-94], the Emax under setting [4] was in the range of 100 to 200%. Moreover, the EC50 is, setting by setting: under setting [5], 1 to 10 µM; under setting [7], 1 to 10 µM. In addition, the “Maximum % activity (with co-corrector)” value (with co-corrector (2 μM)) is recorded as “+++ (≥350)”.
In the case of `COc1ccc(C(C)(C)C)cc1CN[C@H]1[C@H](C(C)(C)C)[C@@H](C(=O)O)N(C(=O)C2CCCN(C)C2=O)[C@H]1c1ccccc1` (single isomer, unassigned) [II-444], the Emax under setting [4] was less than 100%. In addition, the EC50 under setting [5] was in the range of 1 to 10 µM. Under setting [6], the “Maximum % activity (with co-corrector)” value is “++ (≥150 and <350)”.
As to `COc1nc(C(C)(C)C)ccc1CN[C@H]1[C@H](C(C)(C)C)[C@@H](C(=O)O)N(C(=O)C2CCCCC2)[C@H]1c1ccccc1C(C)C` [Example I-187], the EC50 is, setting by setting: under setting [5], less than 1 µM; under setting [7], less than 1 µM. Moreover, the “Maximum % activity (with co-corrector)” value (with co-corrector (2 μM)) is “+++ (≥350)”. Further, the Emax (without co-corrector) is more than 200%.
For the compound `COc1ncc(C2CCC2)cc1CN[C@H]1[C@H](C(C)(C)C)[C@@H](C(=O)O)N(C(=O)C2C3CCCC32)[C@H]1c1cccnc1OC` (some centres unmarked) [Example I-243], the EC50 runs as follows: under setting [5], 1 to 10 µM; under setting [7], 1 to 10 µM. Moreover, the “Maximum % activity (with co-corrector)” value (with co-corrector (2 μM)) was “+++ (≥350)”. Moreover, the Emax (without co-corrector) is 100 to 200%.
Turning to `CCc1ccccc1[C@H]1[C@@H](NCc2cc(C3CCC3)cnc2OC)[C@H](C(C)(C)C)[C@@H](C(=O)O)N1C(=O)[C@@H]1CCCCO1` [Example I-297], the EC50 reads like this: under setting [1], 1 to 10 µM; under setting [2], less than 1 µM. In addition, the “Maximum % activity (with co-corrector)” value under setting [3] is listed as “+++ (≥350)”. Besides, the Emax (CSE-HRP, without co-corrector) is more than 200%.
Take `COc1ccc(C(C)(C)C)cc1CN[C@H]1[C@H](C(C)(C)C)[C@@H](C(=O)O)N(C(=O)C2CC2)[C@H]1c1ccccc1` [II-333]: under setting [4], the Emax was more than 200%. Also, the EC50 by setting is: under setting [5], 1 to 10 µM; under setting [7], 1 to 10 µM. Besides, the “Maximum % activity (with co-corrector)” value under setting [6] is “+++ (≥350)”.
In the case of `COc1ccc(Cl)cc1CN[C@H]1[C@H](C(C)(C)C)[C@@H](C(=O)O)N(C(=O)[C@H](OC)c2ccccc2)[C@H]1c1ccccc1N(C)C` [II-63], the EC50 is, setting by setting: under setting [1], 1 to 10 µM; under setting [2], 1 to 10 µM. Besides, the “Maximum % activity (with co-corrector)” value under setting [3] is recorded as “+++ (≥350)”. Moreover, the Emax (CSE-HRP, without co-corrector) is more than 200%.
For `COc1ccc(C(F)(F)F)cc1CN[C@H]1[C@H](C(C)(C)C)[C@@H](C(=O)O)N(C(=O)C2CC(C)CC(C)C2)[C@H]1c1ccccc1` (some centres unmarked) [III-196], the Emax under setting [4] fell in the range of 100 to 200%. Besides, the half-maximal effective concentration (EC50) was less than 1 µM under setting [5] and less than 1 µM under setting [7]. In addition, the “Maximum % activity (with co-corrector)” value (with co-corrector (2 μM)) is “+++ (≥350)”.
As for `COc1ccc(C(C)(C)C)cc1CN[C@H]1[C@H](C(C)(C)C)[C@@H](C(=O)O)N(C(=O)C2CCc3ccc(F)cc3O2)[C@H]1c1cccnc1N(C)C` (single isomer, unassigned) [II-453], under setting [4], the “Maximum % activity (without co-corrector)” value was “+ (<100)”. The concentration for a half-maximal effect (EC50) is more than 10 µM under setting [5] and less than 1 µM under setting [7]. For the same compound, for the setting “with co-corrector (2 μM of 3-[(2R,4R)-4-({[1-(2,2-difluoro-1,3-benzodioxol-5-yl)cyclopropyl]carbonyl}amino)-7-methoxy-3,4-dihydro-2H-chromen-2-yl]benzoic acid), 2 µM”, the “Maximum % activity (with co-corrector)” value was “++ (≥150 and <350)”.
As for `COc1cnc(C2CCC2)cc1CN[C@H]1[C@H](C(C)(C)C)[C@@H](C(=O)O)N(C(=O)C2CCCCC2)[C@H]1c1ccccc1` [Example I-168], the EC50 reads like this: under setting [5], 1 to 10 µM; under setting [7], 1 to 10 µM. Besides, under “with co-corrector (2 μM)”, the “Maximum % activity (with co-corrector)” value is reported as “+++ (≥350)”. Also, the Emax (without co-corrector) is less than 100%.

The EC50 is the concentration at which the effect is half-maximal.
